Patent US10703701B2, “Fluoroalkyl, fluoroalkoxy, phenoxy, heteroaryloxy, alkoxy, and amine 1,4-benzoquinone derivatives for treatment of oxidative stress disorders” (PTC Therapeutics, Inc., priority 2015, dated 2020)

Columns and labels:
[1] = tested on: Q7 cells (ST HDH Q7/7; immortalized mouse striatal cells); assay: Q7 cystine deprivation cell survival assay (96-well, Calcein AM); type: cell-based; details: for EC50: Mus musculus, rescue of Q7 cells from cystine deprivation, 18 hours, Calcein AM fluorescence, 96-well
Protocol: (§1) In neuronal cells excess extracellular glutamate inhibits the cystine/glutamate antiporter leading to intracellular cysteine depletion, GSH depletion, ROS production and cell death, a phenomenon termed oxidative glutamate toxicity or oxytosis. Q7 cells (ST HDH Q7/7; immortalized mouse striatal cells) challenged with cystine-free media recapitulate this phenotype. An initial screen was performed to identify compounds effective in rescuing Q7 cells from death resulting from cystine deprivation. This method is further described in Yonezawa et al., J. Neurochem 67, 566-573 (1996), and Li et al., J Neurosci., 23, 5816-5826 (2003).
(§2) DMEM (Catalog no. 11995-040), DMEM without Cystine (Catalog no. 21013-024), Penicillin-streptomycin mix, L-Glutamine and Pyruvate were purchased from Gibco. Fetal Bovine Serum was obtained from Mediatech, Inc. Mouse striatum derived ST HDH Q7/7 (Q7) cells were obtained from Dr. M. MacDonald (Massachusetts General Hospital). Methionine and Vitamin K2 were purchased from Sigma Aldrich. Calcein AM was purchased from Anaspec. Geneticin (G418) Sulfate was purchased from Santa Cruz Biotechnology. Cell culture medium (Growth medium) was made by combining 50 mL Fetal Bovine Serum, 100 U/mL penicillin, 100 microgram/mL streptomycin and 400 microgram/mL Geneticin (G418) Sulfate; DMEM was added to make the volume up to 500 mL. Assay medium (without Cystine) was made by combining 50 mL Fetal Bovine Serum, 100 U/mL penicillin, 100 microgram/mL streptomycin, 4 mM L-Glutamine, 1 mM Pyruvate and 30 mg/L Methionine; DMEM without Cystine was added to make the volume up to 500 mL. During the course of the experiments, these solutions were stored at 4° C. The cells were grown in 10-cm diameter tissue culture-treated dishes. Every fourth day, the cells were subcultured by trypsinization and re-seeding at a cell density of 500,000 cells per dish.
(§3) Test samples were supplied in 1.5 mL glass vials. The compounds were diluted with an appropriate volume of DMSO to result in a 1 mM stock solution. Once dissolved, they were stored at −20° C.
Test samples were screened according to the following protocol:
Q7 cells were cultured routinely as described herein. For cell survival assays, cells were seeded in clear 96-well tissue culture-treated polystyrene plates by resuspending a cell suspension at a density of 100,000 cells/mL in growth medium, then dispensing 100 microliters of cell suspension per well using an electronic multichannel pipette, corresponding to 10,000 cells/well. The cell-containing plates were incubated 5 hours at 33° C. in an atmosphere with 95% humidity and 5% CO2 to allow attachment of the cells to the culture plate.
Test compounds were thawed, and 2 microliters of a 1 mM stock solution was diluted in a microtiter plate well containing 98 microliters of 10% DMSO in H2O, resulting in a 20 micromolar master solution. Serial dilutions from the master solution were made in 10% DMSO. The period between the single dilution steps was kept as short as possible (generally less than 30 seconds). 5 hours after cell seeding into the 96-well assay plate, the cell culture medium was removed by inverting the plates and gently patted onto paper towel. The plates were washed once with 100 microliters of PBS containing Ca^++ and Mg^++. PBS containing Ca^++ and Mg^++ were removed by inverting the plates and gently patted onto a paper towel. After washing the wells, 100 microliters of assay medium without Cystine was dispensed and then treated with 10 microliters of the various compound dilutions in triplicates. Final concentration of DMSO in the well was 1%.
After medium change to cystine-free medium and compound addition, cell plates were incubated at 33° C. in an atmosphere of 5% CO2 and 95% humidity. 18 hours later, the medium from all plates was removed by inverting the plates and gently tapping the plate onto a paper towel. […]

[2] = tested on: Q7 cells (ST HDH Q7/7; immortalized mouse striatal cells); assay: 384-Well Cell Titer Glo (CTG) Q7 Cystine Deprivation Survival Assay; type: cell-based; details: read-out: Q7 Cystine Free CTG 384 CSA (EC50)
Protocol: as §1
as §2, with “21013-024), PBS (Phosphate buffered saline),” for “21013-024),”, “Cell Titer Glo 2.0” for “Calcein AM”, “Promega.” for “Anaspec.”
as §3
Test Samples were Screened According to the Following Protocol:
Q7 cells were cultured routinely as described herein. For 384-well cell survival assays, cells were seeded in clear bottom, black wall 384-well tissue culture-treated polystyrene plates by resuspending a cell suspension at a density of 50,000 cells/mL in growth medium, then dispensing 60 microliters of cell suspension per well using either an electronic multichannel pipette or a Multidrop™ Combi Reagent Dispenser (ThermoFisher Scientific), corresponding to 3,000 cells/well. The cell-containing plates were incubated 5 hours at 33° C. in an atmosphere with 95% humidity and 5% CO2 to allow attachment of the cells to the culture plate.
5 hours after cell seeding into the 384-well assay plate, the cell culture medium was replaced by washing 2 times with 70 microliters/well PBS (without Ca^++ and Mg^++) using a BioTek ELx405 plate washer. After the final aspiration, 60 microliters/well of assay medium (without cystine) was added using the Multidrop Combi Reagent Dispenser. Within 45 minutes, test compounds were then added to varying final concentrations using the Tecan D300e Digital Dispenser, with subsequent back-filling with DMSO diluent to a final concentration of 0.3% (v/v).
After medium change to cystine-free medium and compound addition, cell plates were incubated at 33° C. in an atmosphere of 5% CO2 and 95% humidity. 18 hours later, the plates were equilibrated to room temperature for 15 minutes. Then, 10 microliters/well of room temperature Cell Titer Glo 2.0 reagent was added using the Multidrop Combi Reagent Dispenser. After 15 minutes of incubation at room temperature, the luminescence (100 ms integration time) per well was determined using the BioTek Synergy plate reader. Data was imported into Microsoft Excel. […]

[3] = rescue of Q7 cells from cystine deprivation, 18 hours, Cell Titer Glo luminescence, 384-well

SMILES: CC1=C(C)C(=O)C(CCCCCCCCOCC(F)(F)F)=C(C)C1=O [Example 1, 2,3,5-trimethyl-6-(8-(2,2,2-trifluoroethoxy)octyl)cyclohexa-2,5-diene-1,4-dione]
- EC50 [1]: 0.5 to 1 µM
- EC50 [2, 3]: 0.1 to 0.5 µM

SMILES: CC1=C(C)C(=O)C(CCCCCCCCC(F)(F)F)=C(C)C1=O [Example 2, 2,3,5-trimethyl-6-(9,9,9-trifluorononyl)cyclohexa-2,5-diene-1,4-dione]
- EC50 [1]: 0.5 to 1 µM
- EC50 [2, 3]: 0.1 to 0.5 µM

SMILES: COCCCCCCCCC1=C(C)C(=O)C(C)=C(C)C1=O [Example 3, 2-(8-methoxyoctyl)-3,5,6-trimethylcyclohexa-2,5-diene-1,4-dione]
- EC50 [1]: 0.5 to 1 µM
- EC50 [2, 3]: 0.1 to 0.5 µM

SMILES: CC1=C(C)C(=O)C(CCCCCCCCCCC(F)(F)F)=C(C)C1=O [Example 4, 2,3,5-trimethyl-6-(11,11,11-trifluoroundecyl)cyclohexa-2,5-diene-1,4-dione]
- EC50 [1]: < 0.5 µM
- EC50 [2, 3]: < 0.1 µM

SMILES: CC1=C(C)C(=O)C(CCCCCCCCCCOCC(F)(F)F)=C(C)C1=O [Example 5, 2,3,5-trimethyl-6-(10-(2,2,2-trifluoroethoxy)decyl)cyclohexa-2,5-diene-1,4-dione]
- EC50 [1]: < 0.5 µM
- EC50 [2, 3]: < 0.1 µM

SMILES: COCCCCCCCCCCC1=C(C)C(=O)C(C)=C(C)C1=O [Example 6, 2-(10-methoxydecyl)-3,5,6-trimethylcyclohexa-2,5-diene-1,4-dione]
- EC50 [1]: 0.5 to 1 µM
- EC50 [2, 3]: < 0.1 µM

SMILES: CC1=C(C)C(=O)C(C(C)C)=C(CCCCCCCCCCC(F)(F)F)C1=O [Example 7, 2-isopropyl-5,6-dimethyl-3-(11,11,11-trifluoroundecyl)cyclohexa-2,5-diene-1,4-dione]
- EC50 [1]: < 0.5 µM
- EC50 [2, 3]: 0.1 to 0.5 µM

SMILES: CC1=C(C)C(=O)C(NS(C)(=O)=O)=C(CCCCCCCCCCC(F)(F)F)C1=O [Example 8, N-(4,5-dimethyl-3,6-dioxo-2-(11,11,11-trifluoroundecyl)cyclohexa-1,4-dien-1-yl)methanesulfonamide]
- EC50 [2, 3]: < 0.1 µM

SMILES: CC1=C(C)C(=O)C(CCCCCCCCCCOC(C)C)=C(C)C1=O [Example 9, 2-(10-isopropoxydecyl)-3,5,6-trimethylcyclohexa-2,5-diene-1,4-dione]
- EC50 ([2]; 18 h): < 0.1 µM

SMILES: CCOCCCCCCCCC1=C(C)C(=O)C(C)=C(C)C1=O [Example 10, 2-(8-ethoxyoctyl)-3,5,6-trimethylcyclohexa-2,5-diene-1,4-dione]
- EC50 ([2]; 18 h): < 0.1 µM

SMILES: CC1=C(C)C(=O)C(CCCCCCCCCCOCC(C)C)=C(C)C1=O [Example 11, 2-(10-isobutoxydecyl)-3,5,6-trimethylcyclohexa-2,5-diene-1,4-dione]
- EC50 ([2]; 18 h): < 0.1 µM

SMILES: CCCOCCCCCCCCCCC1=C(C)C(=O)C(C)=C(C)C1=O [Example 12, 2,3,5-trimethyl-6-(10-propoxydecyl)cyclohexa-2,5-diene-1,4-dione]
- EC50 ([2]; 18 h): < 0.1 µM

SMILES: CC1=C(C)C(=O)C(CCCCCCCCCCOc2ccccc2)=C(C)C1=O [Example 13, 2,3,5-trimethyl-6-(10-phenoxydecyl)cyclohexa-2,5-diene-1,4-dione]
- EC50 ([2]; 18 h): < 0.1 µM

SMILES: CC1=C(C)C(=O)C(CCCCCCCCOC(C)C)=C(C)C1=O [Example 14, 2-(8-isopropoxyoctyl)-3,5,6-trimethylcyclohexa-2,5-diene-1,4-dione]
- EC50 ([2]; 18 h): < 0.1 µM

SMILES: COCCCCCCC1=C(C)C(=O)C(C)=C(C)C1=O [Example 15, 2-(6-methoxyhexyl)-3,5,6-trimethylcyclohexa-2,5-diene-1,4-dione]
- EC50 ([2]; 18 h): 0.1 to 0.5 µM

SMILES: CCOCCCCCCCCCCC1=C(C)C(=O)C(C)=C(C)C1=O [Example 16, 2-(10-ethoxydecyl)-3,5,6-trimethylcyclohexa-2,5-diene-1,4-dione]
- EC50 [2, 3]: < 0.1 µM

SMILES: CCCOCCCCCCCCC1=C(C)C(=O)C(C)=C(C)C1=O [Example 17, 2,3,5-trimethyl-6-(8-propoxyoctyl)cyclohexa-2,5-diene-1,4-dione]
- EC50 [2, 3]: < 0.1 µM

SMILES: CC1=C(C)C(=O)C(CCCCCCCCOCC(C)C)=C(C)C1=O [Example 18, 2-(8-isobutoxyoctyl)-3,5,6-trimethylcyclohexa-2,5-diene-1,4-dione]
- EC50 ([2]; 18 h): < 0.1 µM

SMILES: CC1=C(C)C(=O)C(CCCCCCCCOc2cccnc2C)=C(C)C1=O [Example 19, 2,3,5-trimethyl-6-(8-((2-methylpyridin-3-yl)oxy)octyl)cyclohexa-2,5-diene-1,4-dione]
- EC50 ([2]; 18 h): 0.1 to 0.5 µM

SMILES: CC1=C(C)C(=O)C(CCCCCCCCCCN(C)CC(C)C)=C(C)C1=O [Example 20, 2-(10-(isobutyl(methyl)amino)decyl)-3,5,6-trimethylcyclohexa-2,5-diene-1,4-dione]
- EC50 [2, 3]: < 0.1 µM

SMILES: CC1=C(C)C(=O)C(CCCCCCCCCCN2CCCC2)=C(C)C1=O [Example 21, 2,3,5-trimethyl-6-(10-(pyrrolidin-1-yl)decyl)cyclohexa-2,5-diene-1,4-dione]
- EC50 [2, 3]: < 0.1 µM

SMILES: CC1=C(C)C(=O)C(CCCCCCCCCCNCC(C)C)=C(C)C1=O [Example 22, 2-(10-(isobutylamino)decyl)-3,5,6-trimethylcyclohexa-2,5-diene-1,4-dione]
- EC50 ([2]; 18 h): < 0.1 µM

SMILES: CC(C)=CCC/C(C)=C/CC/C(C)=C/CC/C(C)=C/CC1=C(C)C(=O)c2ccccc2C1=O [Vitamin K2, reference compound]
- rescue of cystine deprivation-induced reduction in cell viability ([1]; 1 micromolar, defined as 100% relative viability): completely rescued
